# PubChem BioAssay (NCI)
#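 Compound exposure: 48 hours, 5 concentrations, 96-well plates. TGI denotes the concentration required for complete inhibition of growth.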
# How the values were obtained:
# Test in all cases: NCI tumour cell line growth inhibition, 48 h
# [1] = test system: A498 renal
# [2] = test system: A549 NSCLC
# [3] = test system: CAKI-1 renal
# [4] = test system: CCRF-CEM leukemia
# [5] = test system: COLO 205 colon
# [6] = test system: DLD-1 colon
# [7] = test system: DMS 114 small cell lung
# [8] = test system: DMS 273 small cell lung
# [9] = test system: EKVX NSCLC
# [10] = test system: HCC-2998 colon
# [11] = test system: HCT-116 colon
# [12] = test system: HCT-15 colon
# [13] = test system: HL-60(TB) leukemia
# [14] = test system: HOP-18 NSCLC
# [15] = test system: HOP-92 NSCLC
# [16] = test system: HT29 colon
# [17] = test system: IGROV1 ovarian
# [18] = test system: KM20L2 colon
# [19] = test system: LOX IMVI melanoma
# [20] = test system: M19-MEL melanoma
# [21] = test system: MALME-3M melanoma
# [22] = test system: MCF7 breast
# [23] = test system: MOLT-4 leukemia
# [24] = test system: NCI-H226 lung
# [25] = test system: NCI-H23 lung
# [26] = test system: NCI-H460 lung
# [27] = test system: NCI/ADR-RES ovarian
# [28] = test system: OVCAR-3 ovarian
# [29] = test system: OVCAR-4 ovarian
# [30] = test system: OVCAR-5 ovarian
# [31] = test system: OVCAR-8 ovarian
# [32] = test system: P388/ADR leukemia
# [33] = test system: RXF 393 renal
# [34] = test system: SF-268 CNS
# [35] = test system: SF-295 CNS
# [36] = test system: SF-539 CNS
# [37] = test system: SK-MEL-2 melanoma
# [38] = test system: SK-MEL-28 melanoma
# [39] = test system: SK-MEL-5 melanoma
# [40] = test system: SN12C renal
# [41] = test system: SNB-19 CNS
# [42] = test system: SNB-75 CNS
# [43] = test system: SNB-78 CNS
# [44] = test system: SW-620 colon
# [45] = test system: U251 CNS
# [46] = test system: UACC-257 melanoma
# [47] = test system: UACC-62 melanoma
# [48] = test system: UO-31 renal
# [49] = test system: XF 498 CNS
# [50] = test system: HOP-62 NSCLC
# [51] = test system: KM12 colon
# [52] = test system: NCI-H522 lung
# [53] = test system: P388 leukemia
# [54] = test system: RPMI-8226 leukemia
# [55] = test system: SK-OV-3 ovarian
# [56] = test system: SN12K1 renal
# [57] = test system: K-562 leukemia
smiles,measurement,setting,value
O=C1c2cccc3cc4ccccc4c(c23)C(=O)N1CCNCCNCCNCCN1C(=O)c2cccc3cc4ccccc4c(c23)C1=O,TGI,[1],0.566 µM
same,TGI,[2],1 µM
same,TGI,[3],0.344 µM
same,TGI,[4],0.637 µM
same,TGI,[5],0.184 µM
same,TGI,[6],0.344 µM
same,TGI,[7],0.177 µM
same,TGI,[8],0.159 µM
same,TGI,[9],0.666 µM
same,TGI,[10],0.0829 µM
same,TGI,[11],1.11 µM
same,TGI,[12],0.474 µM
same,TGI,[13],0.212 µM
same,TGI,[14],0.398 µM
same,TGI,[15],0.254 µM
same,TGI,[16],0.552 µM
same,TGI,[17],1.22 µM
same,TGI,[18],0.597 µM
same,TGI,[19],0.155 µM
same,TGI,[20],0.161 µM
same,TGI,[21],0.78 µM
same,TGI,[22],1.87 µM
same,TGI,[23],0.212 µM
same,TGI,[24],> 100 µM
same,TGI,[25],0.159 µM
same,TGI,[26],0.0233 µM
same,TGI,[27],1.53 µM
same,TGI,[28],0.546 µM
same,TGI,[29],0.314 µM
same,TGI,[30],0.672 µM
same,TGI,[31],0.735 µM
same,TGI,[32],0.47 µM
same,TGI,[33],0.0435 µM
same,TGI,[34],0.197 µM
same,TGI,[35],0.281 µM
same,TGI,[36],0.288 µM
same,TGI,[37],0.252 µM
same,TGI,[38],0.324 µM
same,TGI,[39],0.578 µM
same,TGI,[40],1.41 µM
same,TGI,[41],0.927 µM
same,TGI,[42],0.106 µM
same,TGI,[43],0.385 µM
same,TGI,[44],0.308 µM
same,TGI,[45],0.539 µM
same,TGI,[46],0.767 µM
same,TGI,[47],0.156 µM
same,TGI,[48],0.36 µM
same,TGI,[49],0.178 µM
Nc1nc(N)nc(-c2ccccc2NS(=O)(=O)c2ccc([N+](=O)[O-])cc2)n1,TGI,[1],> 100 µM
same,TGI,[2],> 100 µM
same,TGI,[3],> 34.6 µM
same,TGI,[4],> 100 µM
same,TGI,[5],> 31.6 µM
same,TGI,[6],> 100 µM
same,TGI,[7],> 100 µM
same,TGI,[8],> 100 µM
same,TGI,[9],> 100 µM
same,TGI,[10],> 100 µM
same,TGI,[11],> 100 µM
same,TGI,[12],> 100 µM
same,TGI,[13],61.5 µM
same,TGI,[14],> 100 µM
same,TGI,[50],> 100 µM
same,TGI,[15],> 100 µM
same,TGI,[16],> 100 µM
same,TGI,[17],> 100 µM
same,TGI,[51],> 100 µM
same,TGI,[18],> 100 µM
same,TGI,[19],> 100 µM
same,TGI,[20],> 100 µM
same,TGI,[21],> 100 µM
same,TGI,[22],> 100 µM
same,TGI,[23],> 100 µM
same,TGI,[24],> 100 µM
same,TGI,[25],> 100 µM
same,TGI,[26],> 100 µM
same,TGI,[52],> 100 µM
same,TGI,[27],> 100 µM
same,TGI,[28],> 100 µM
same,TGI,[29],> 100 µM
same,TGI,[30],> 100 µM
same,TGI,[31],> 100 µM
same,TGI,[53],> 100 µM
same,TGI,[32],> 100 µM
same,TGI,[54],> 100 µM
same,TGI,[33],> 100 µM
same,TGI,[34],> 100 µM
same,TGI,[35],> 100 µM
same,TGI,[36],> 100 µM
same,TGI,[37],> 100 µM
same,TGI,[38],> 100 µM
same,TGI,[39],> 84.8 µM
same,TGI,[55],> 100 µM
same,TGI,[40],> 100 µM
same,TGI,[56],> 100 µM
same,TGI,[41],> 100 µM
same,TGI,[42],> 90.6 µM
same,TGI,[43],> 100 µM
same,TGI,[44],> 100 µM
same,TGI,[45],> 100 µM
same,TGI,[46],> 100 µM
same,TGI,[47],> 100 µM
same,TGI,[48],> 100 µM
same,TGI,[49],63.5 µM
CCCCC1=C(Br)C(=C(Br)Br)OC1=O,TGI,[1],31 µM
same,TGI,[2],33.8 µM
same,TGI,[3],5.53 µM
same,TGI,[4],7.81 µM
same,TGI,[5],8.11 µM
same,TGI,[6],4.37 µM
same,TGI,[7],5.71 µM
same,TGI,[8],8.01 µM
same,TGI,[9],10.6 µM
same,TGI,[10],18.1 µM
same,TGI,[11],8.85 µM
same,TGI,[12],5.55 µM
same,TGI,[13],5.38 µM
same,TGI,[14],10.5 µM
same,TGI,[50],19 µM
same,TGI,[15],23.4 µM
same,TGI,[16],10.2 µM
same,TGI,[17],5.92 µM
same,TGI,[57],13 µM
same,TGI,[51],9.28 µM
same,TGI,[18],24.8 µM
same,TGI,[19],4.78 µM
same,TGI,[20],8.42 µM
same,TGI,[21],5.31 µM
same,TGI,[22],15.4 µM
same,TGI,[23],5.66 µM
same,TGI,[24],9.35 µM
same,TGI,[25],15.8 µM
same,TGI,[26],16.8 µM
same,TGI,[52],3.5 µM
same,TGI,[27],11.9 µM
same,TGI,[28],6.05 µM
same,TGI,[29],3.32 µM
same,TGI,[30],30.3 µM
same,TGI,[31],11.4 µM
same,TGI,[53],2.4 µM
same,TGI,[32],5.76 µM
same,TGI,[54],4.67 µM
same,TGI,[33],5.95 µM
same,TGI,[34],7.9 µM
same,TGI,[35],23.7 µM
same,TGI,[36],10.5 µM
same,TGI,[37],8.49 µM
same,TGI,[38],7.78 µM
same,TGI,[39],13.5 µM
same,TGI,[55],31.4 µM
same,TGI,[40],7.92 µM
same,TGI,[56],3.96 µM
same,TGI,[41],20.3 µM
same,TGI,[42],16.5 µM
same,TGI,[43],37 µM
same,TGI,[44],12.4 µM
same,TGI,[45],17.1 µM
same,TGI,[46],6.16 µM
same,TGI,[47],6.51 µM
same,TGI,[48],24.2 µM
same,TGI,[49],19.9 µM
